This note sets out measurements from ChEMBL document CHEMBL1944573, “New bisabolane sesquiterpenoids from a marine-derived fungus Aspergillus sp. isolated from the sponge Xestospongia testudinaria” (Bioorg Med Chem Lett, 2012).

Assay [1] relates to HepG2. The assay can be described thus: Cytotoxicity against human HepG2 cells by MTT assay. The assay is classed as functional, cell-based.
Assay [2] concerns Ca-Ski. Briefly: Cytotoxicity against human CaSki cells by MTT assay. Type of assay: functional, cell-based.

≈ marks a conversion by molar mass, not a printed value. A value given as a limit tells only on which side of the number the result lay.

As to `CC(C)CCC[C@](C)(O)c1ccc(Cc2cc([C@@](C)(O)CCCC(C)C)c(O)cc2CO)cc1O` [DISYDONOL C], the 50% inhibitory concentration (IC50) in assay [1] was found to be 2.91 µg/mL (≈ 5.98 µM); in assay [2], 10.2 µg/mL (≈ 21 µM).
For `CC(C)CCC[C@](C)(O)c1ccc(CO)cc1Oc1cc(CO)ccc1[C@](C)(O)CCCC(C)C` [DISYDONOL B] the same measures were more than 100 µg/mL and more than 100 µg/mL.
The corresponding values for `CC(C)CCC[C@](C)(O)c1ccc(COc2cc(CO)ccc2[C@@](C)(O)CCCC(C)C)cc1O` [DISYDONOL A] are 9.31 µg/mL (≈ 19.1 µM) and 12.4 µg/mL (≈ 25.5 µM).
